The values that follow come from PubChem BioAssay (NCI).

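Results reflect a 48-hour exposure of cells in 96-well plates to compound at five concentrations. At the GI50, growth is halved. TGI marks complete inhibition of growth.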

Assay in all cases: NCI tumour cell line growth inhibition, 48 h
The subject of assay [1] is DLD-1 colon.
In assay [2] the test system is DMS 273 small cell lung.
Assay [3] relates to KM20L2 colon.
In assay [4] the test system is LXFL 529 NSCLC.
Assay [5] concerns M19-MEL melanoma.
Assay [6] deals with XF 498 CNS.

Regarding `CC[O-].CC[O-].O=C1c2ccccc2C(=O)c2c(O)ccc([O-])c21.O=C1c2ccccc2C(=O)c2c(O)ccc([O-])c21.[Ti+4]`, the TGI was more than 100 µM in assay [1]; more than 100 µM in assay [2]; more than 100 µM in assay [3]; more than 100 µM in assay [4]; 73.4 µM in assay [5]. Also, in assay [3], the GI50 was more than 100 µM.

As to `CC(C)(C)OC(=O)Cc1ccc2c(ccn2Cc2ccccc2)c1`, the TGI in assay [1] was more than 100 µM; in assay [2] it was more than 100 µM; in assay [3] it was 77.2 µM; in assay [4], more than 100 µM; in assay [5], more than 100 µM.

As for `CC(C)=CCC/C(=C/CC/C(C)=C/CCc1ccoc1)C(=O)O`, the TGI in assay [1], in assay [3], in assay [4], in assay [5] and in assay [6] was more than 100 µM throughout.

For the compound `CN(C)P(=O)(/C(N)=N/Nc1ccc([N+](=O)[O-])cc1)N(C)C`, the TGI in assay [1], in assay [2], in assay [3], in assay [4], in assay [5] and in assay [6] was more than 100 µM throughout.

Take `O=C(O)CP(=S)(S)c1ccccc1` (stereo not drawn): the TGI in assay [1], in assay [2], in assay [4], in assay [5] and in assay [6] was more than 100 µM throughout.

Regarding `CC(=O)[CH-]C(=O)c1ccccc1.CC(=O)[CH-]C(=O)c1ccccc1.O=C([O-])c1ccc([O-])cc1.O=C([O-])c1ccc([O-])cc1.[Ti+4]`, the GI50 in assay [1] was more than 100 µM; in assay [3], 51.1 µM; in assay [4], 31.1 µM. For the same compound, the TGI in assay [1], in assay [3] and in assay [4] was more than 100 µM in each case.

Take `COC(=O)C1=NC(=S)NC(c2ccccc2)C1c1nc2ccccc2s1` (stereo not drawn): the TGI in assay [1], in assay [2], in assay [3], in assay [4] and in assay [5] was more than 100 µM throughout.

As to `Cc1ccc(Nc2nc3c(s2)C(=O)c2ccccc2C3=O)c(C)c1`, the TGI in assay [1] was 31.4 µM; in assay [2], 43.7 µM; in assay [3], more than 100 µM; in assay [4] it was 28.7 µM; in assay [5], 5.71 µM; in assay [6] it was 36.2 µM.

As to `CCOC(=O)CN=c1nc(SC)sc2c(C(=O)OCC)nc(Sc3ccccc3)n12`, the TGI in assay [1], in assay [3], in assay [4], in assay [5] and in assay [6] was more than 100 µM each time.

In the case of `COC(=O)c1cccc2cccc(C(=O)Nc3ccc(C)cc3C)c12`, the TGI in assay [1], in assay [2], in assay [3], in assay [4], in assay [5] and in assay [6] was more than 100 µM each time.

For `Cn1cc(C(=O)c2ccccc2)ccc1=O`, the TGI in assay [1], in assay [2], in assay [3], in assay [4], in assay [5] and in assay [6] was more than 100 µM in each case.

Take `COc1ccc2c(c1)CCC1C3(CCCC21C)OCCO3` (stereo not drawn): the TGI turned out to be 34.5 µM in assay [1]; 40.3 µM in assay [2]; 39.2 µM in assay [3]; 44.9 µM in assay [4]; 37.7 µM in assay [5].

With `CC(C)N(C(=O)C12CC3CC(CC(C3)C1)C2)C(C)C`, the TGI in assay [1], in assay [2], in assay [3], in assay [4] and in assay [5] was more than 50 µM throughout.

With `Cc1ccc(N(C(=O)CC(=O)NN)C(=O)c2ccccc2Cl)cc1`, the TGI in assay [1], in assay [2], in assay [3], in assay [4], in assay [5] and in assay [6] was more than 100 µM throughout.

Take `Cc1cccc(NC(=O)C(=O)Cc2nc3ccccc3[nH]c2=O)c1C`: the TGI in assay [1], in assay [3], in assay [4], in assay [5] and in assay [6] was more than 100 µM in each case.

As for `CC1=C2C(=O)O[C@@H](c3ccoc3)[C@]2(C)CCC1`, the TGI in assay [1], in assay [3], in assay [4], in assay [5] and in assay [6] was more than 100 µM in each case.

As for `Cc1ccccc1N(CCC#N)C1=NN(C(=O)CC(=O)Nc2ccccc2)C(c2ccccc2)C1` (stereo not drawn), the TGI in assay [1], in assay [2], in assay [3], in assay [4] and in assay [5] was more than 100 µM in each case.

In the case of `O=C(O)CN(c1ccccc1)S(=O)(=O)c1ccccc1[N+](=O)[O-]`, the TGI in assay [1], in assay [2], in assay [3], in assay [4], in assay [5] and in assay [6] was more than 100 µM in each case.

Turning to `CCCCCCCCCCCCCC1CCC(CC)N1` (stereo not drawn), the TGI in assay [1] came to 28.9 µM; in assay [2] it was 29.1 µM; in assay [3], 26.2 µM; in assay [4] it was 32.6 µM; in assay [5], 10.6 µM.

Consider `Cc1ccc2nc3c(C(=O)NCCN(C)C)cccc3nc2c1`, for which the TGI is more than 100 µM in assay [2], 18.2 µM in assay [3], more than 47.1 µM in assay [4] and 7.29 µM in assay [5].

In the case of `CC1=C(C)CC2(CCCCC2=O)S(=O)C1` (stereo not drawn), the TGI in assay [1], in assay [2], in assay [3], in assay [4], in assay [5] and in assay [6] was more than 100 µM each time.
